Test results taken from US20250154169A1, “COMPOUNDS AND METHODS FOR MODULATING SPLICING” (REMIX THERAPEUTICS INC., priority 2021, published 2025).

Assays:
[1] = tested on: K562 cells; test: Cell Titer Glo 2.0 cell viability assay, K562; format: cell-based; details: Homo sapiens, 72 hours incubation
Description: Compounds described herein were screened for toxicity in K562 (human chronic myelogenous leukemia) and SH-SY5Y (human neuroblastoma) cells using a Cell Titer Glo 2.0 assay.
• Promega CellTiter-Glo® 2.0 Cell Viability Assay (cat #G9241) • Corning 384-well TC-treated microplates (cat #3570)
Cells were plated at 500 cells/well (K562 cells) in 45 μL of IMDM supplemented with 10% FBS in a 384-well opaque plate. Wells containing only medium were used as a blank control. Test compounds (e.g., compounds of Formula (I) or (II)) were first serially diluted in DMSO then diluted 1:100 with EIDM+10% FBS. The final concentration of DMSO was 0.1% in each well. The cells were incubated for 72 hours at 37° C. and 5% CO2 before assaying with Cell Titer Glo 2.0 reagent.

[2] = tested on: SMN2 mRNA; test: Splicing RT-qPCR gene panel, SMN2 canonical junction (CJ) mRNA; format: cell-based, human; details: Homo sapiens, Tables 4A/4B, read-out: SMN2 (IC50, decrease in CJ mRNA, gene panel)
In short: (§1)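 A673 or K562 cells were treated 24 h at 37 °C with an 11-point 3-fold dilution series (top 10 uM, ≤0.25% DMSO). Canonical-junction mRNA was measured in lysates by one-step RT-qPCR, normalized to GAPDH, GUSB or PPIA and DMSO control (2^(−ΔΔCt)), expressed as percentage response.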

[3] = tested on: Target C mRNA; test: Splicing RT-qPCR gene panel, Target C canonical junction (CJ) mRNA; format: cell-based, human; details: Homo sapiens, Tables 4A/4B, read-out: Target C (IC50, decrease in CJ mRNA, gene panel)
In short: as §1

[4] = tested on: HTT; test: Protein abundance, HiBit-assay system (Promega), HTT; format: cell-based; details: Table 6; HiBiT-modified K562 cells, 24 hours
Description: In some embodiments, a compound of Formula (I) or (II) or a pharmaceutically acceptable salt thereof, e.g., as described herein, modulates the expression of a target protein (e.g., HTT or MYB) in a reference cell or sample. In an embodiment, a compound of Formula (I) or (II) or a pharmaceutically acceptable salt thereof, e.g., as described herein, increases the expression of a target protein (e.g., HTT or MYB) in a reference cell or sample. In an embodiment, a compound of Formula (I) or (II) or a pharmaceutically acceptable salt thereof, e.g., as described herein, decreases the expression of a target protein (e.g., HTT or MYB) in a reference cell or sample. The effect of an exemplary compound of Formula (I) or (II) on protein abundance may be measured using a standard assay for measuring protein abundance, such as the HiBit-assay system (Promega). In this assay, percent response for each respective cell line may be as calculated at each compound concentration as follows: % response=100*(S−PC)/(NC−PC). For the normalized response at each concentration, a four-parameter logistical regression may be fit to the data and the response may be interpolated at the 50% value to determine a concentration for protein abundance at 50% (IC50) an untreated control. In an embodiment, a compound of Formula (I) or (II) or a pharmaceutically acceptable salt thereof, e.g., as described herein, has a protein abundance response less than 100 nM. In an embodiment, a compound of Formula (I) or (II) or a pharmaceutically acceptable salt thereof, e.g., as described herein, has a protein abundance response between 100-1000 nM. In an embodiment, a compound of Formula (I) or (II) or a pharmaceutically acceptable salt thereof, e.g., as described herein, has a protein abundance response greater than 1000 nM. In an embodiment, a compound of Formula (I) or (II) or a pharmaceutically acceptable salt thereof, e.g., as described herein, has a protein abundance response greater than 10 uM. In an embodiment, a compound of Formula (I) or (II) or a pharmaceutically acceptable salt thereof, e.g., as described herein, modulates the protein abundance of a target protein by about 1%, 5%, 10%, 15%, 20%, 25%, 30%, 35%, 40%, 45%, 50%, 55%, 60%, 65%, 70%, 75%, 80%, 85%, 90%, 95%, 99% or more, e.g., compared with a reference compound.

Row | Structure (SMILES) | GI50 [1] [nM] | IC50 [2] [nM] | IC50 [3] [nM] | IC50 [4] [nM]
1 | Cc1cn2cc(NC(=O)c3ccc(N4CCNC5(CC5)C4)c4cc(C)oc34)cc(F)c2n1 [Compound 194] | 100 to 1000 | < 100 | > 10000 | 1000 to 10000
2 | CCNC1CCN(c2ccc(C(=O)Nc3cc(F)c4nc(C)cn4c3)c3oc(C)cc23)CC1 [Compound 196] | < 100 | < 100 | 1000 to 10000 | 100 to 1000
3 | Cc1cn2cc(NC(=O)c3ccc(N4CCC(NC(C)(C)C)CC4)c4cc(C)oc34)cc(F)c2n1 [Compound 197] | 100 to 1000 | 100 to 1000 | > 10000 | > 10000
4 | Cc1cn2cc(NC(=O)c3ccc(C4CCNCC4)c4cn(C)nc34)cc(F)c2n1 [Compound 208] | 100 to 1000 | < 100 | 100 to 1000 | 100 to 1000
5 | Cc1cc2c(N3CCNCC3)ccc(C(=O)Nc3cc(F)c4cn(C)nc4c3)c2o1 [Compound 217] | 100 to 1000 | 1000 to 10000 | > 10000 | > 10000

The remaining lines, values ahead:

Row | GI50 [1] [nM] | IC50 [2] [nM] | IC50 [3] [nM] | IC50 [4] [nM] | Structure (SMILES)
6 | 100 to 1000 | < 100 | > 10000 | > 10000 | Cc1cn2cc(NC(=O)c3ccc(N4CC(C)(C)NC(C)(C)C4)c4cc(C)oc34)cc(F)c2n1 [Compound 195]
7 | < 100 | < 100 | 1000 to 10000 | 1000 to 10000 | CC1=CC2C(N3CCC(N(C)C)CC3)=CC=C(C(=O)Nc3cc(F)c4nc(C)cn4c3)C2O1 (centres unmarked) [Compound 198]
8 | 100 to 1000 | < 100 | 1000 to 10000 | 1000 to 10000 | Cc1cn2cc(NC(=O)c3ccc(N4CCN5CCCC5C4)c4cc(C)oc34)cc(F)c2n1 (centres unmarked) [Compound 199]
